Data reported in patent US9629941B2, “Hydrogel coated scaffold” (CORTICALIS AS, priority 2012, dated 2017).
Where a SMILES comes first, the peptide text is derived from it.

Tests used:
[1] = Peptide release profile from 2% alginate hydrogel (fluorescence spectroscopy); type: physicochemical
Experimental: To study the peptide release profile, P2 was labeled with FITC. The release of peptide contained into the 2% alginate hydrogel (50 μg/ml) was quantified by fluorescence spectroscopy. First, alginate hydrogels were washed with culture media to remove the excess of CaCl2. Then, 750 μl of cell culture media were added onto peptide loaded alginate hydrogel. The samples were incubated at 37° C. and 5% CO2 for 21 days and cell culture media was changed twice a week. At prefixed time points (24 h, 4 d, 7 d, 11 d, 14 d, 18 d and 21 d), supernatants were collected and analyzed by fluorescence spectroscopy (λ ex 490 nm and λ em 525 nm) to determine the amount of peptide released to the media. The amount of peptide released during the washing step was also measured. The experiment was performed three times, and each sample analyzed in triplicate.
Relative fluorescence units were correlated with the amount of peptide released using a linear standard curve for each time point.

MC3T3-E1 cells [2] = experiment: Cell viability: LDH activity in culture media of cells on alginate hydrogels; type: cell-based, mouse; conditions: 24 h; 50 μg/ml in 2% alginate hydrogel
Experimental: (§1) The mouse osteoblastic cell line MC3T3-E1 (DSMZ, Braunschweig, Germany) was maintained as previously described (Tiainen H et al., 2011). Before seeding, 24-well culture plates containing crosslinked alginate hydrogels were washed with 750 μl of culture media to remove the excess of CaCl2. After evaluation of the efficiency of cell adhesion on 2% alginate gel using different cell densities, for the final experiments, cells were seeded at a density of 100 000 cells/well. Media was refreshed twice a week. Culture media was collected 24 h after seeding to study cell viability. Cells were harvested at days 14 and 21 to analyze gene expression of adhesion and osteogenic-related markers using real-time RT-PCR. Cultures were routinely observed using light microscopy (Leica DMIRB, Leica Microsystems Wetzlar GmbH, Germany).
The LDH activity determined in the culture media after 24 h was taken as an indicator of membrane leakage or cell lysis. The activity of the cytosolic enzyme was estimated as previously described (Rupert M at al., 2011).

MC3T3-E1 cells [3] = experiment: Gene expression of cell adhesion and osteoblast markers by real-time RT-PCR, cells on alginate hydrogels; type: cell-based, mouse; conditions: 50 μg/ml in 2% alginate hydrogel
Experimental: as §1
Total RNA was isolated using Tripure® (Roche Diagnostics, Mannheim, Germany), according to the manufacturer's protocol. Total RNA was quantified at 260 nm using a Nanodrop spectrophotometer (NanoDrop Technologies, Wilmington, Del., USA).
The same amount of RNA (350 ng) was reverse transcribed to cDNA using high capacity RNA-to-cDNA kit (Applied Biosystems, Foster City, Calif.), according to the protocol of the supplier. Aliquots of each cDNA were frozen (−20° C.) until the PCR reactions were carried out.
Real-time PCR was performed in the Lightcycler 480® (Roche Diagnostics, Mannheim, Germany) using SYBR green detection. Real-time PCR was done for two reference genes (18SrRNA and glyceraldehyde-3-phosphate dehydrogenase (GAPDH)) and ten target genes (integrin alpha 8 (Itga8), integrin beta1 (Itgb1), integrin beta 3 (Itgb3), fibronectin 1 (Fn11), bone morphogenetic protein 2 (Bmp2), collagen type I (Coll-I), bone sialoprotein (Bsp), alkaline phosphatase (Alp), osteocalcin (Oc) and osteopontin (Opn)).
The primer sequences are detailed in Table 2. Reaction conditions and relative quantification have been done as previously described (Tiainen H et al., 2011).

[4] = Peptide 2 release profile from TiO2 scaffolds coated with 2% alginate gel (UV-Vis 206 nm); type: physicochemical; conditions: P2-alginate-coated TiO2 scaffolds, distilled water, 37° C.
Experimental: TiO2 scaffolds coated with 2% alginate containing peptide 2 (P2-alginate-coated scaffold) were placed into 48-well plates (Nunc GmBh & Co. Kg, Langenselbold, Germany) containing 1 ml distilled water (pH 7.4). In order to mimic cell culture conditions, the samples were agitated on an orbital shaker at 200 rpm (IKA® Schüttler MTS 2, Germany) for 6 h at 37° C. and in humidity conditions (using a distilled water container). Then, samples were maintained at 37° C. in a humidified atmosphere for up to 21 days. At prefixed time points (2d, 5d, 7d, 9d, 12d, 14d, 16d, 19d and 21d), distilled water was collected and fresh distilled water was added into each well. Sample absorbances were analyzed by UV-Vis spectrophotometer (PerkinElmer® Lambda 25 UV/Vis Systems, USA) at a wavelength of 206 nm to determine the amount of peptide released. In parallel, […] scaffolds coated with one layer of 2% alginate gel were used as control to subtract absorbance values obtained from degradation products from alginate.
Relative absorbance units were correlated with the amount of peptide released using a linear standard curve for each time point and the cumulative P2 released was then calculated. The experiment was performed in triplicate.

[5] = system: primary human osteoblasts; experiment: Cytotoxicity assay (LDH activity in culture medium), SIM containing scaffolds; type: cell-based; conditions: for LDH activity compared to alginate-coated scaffolds without SIM: 14-day period
Experimental: Cells from passages 7-9 were seeded on scaffolds at a density of 400.000 cells/ml. […] Scaffolds soaked with culture medium were placed in 48-well culture plates. […] The culture medium was replaced every other day. Collected medium was saved for use in cytotoxicity, alkaline phosphatase (ALP) activity and protein expression assays.

[6] = FITC-labeled P2, 50 μg/ml in 2% alginate hydrogel, culture media, 37° C.

Row | Compound | Expression of Opn (MC3T3-E1 cells [3]; 14 days, vs control) | Fn1 mRNA levels (MC3T3-E1 cells [3]; 14 days, vs control) | Itgb1 mRNA levels (MC3T3-E1 cells [3]; 14 days, vs control) | Itgb3 mRNA levels (MC3T3-E1 cells [3]; 14 days, vs control) | Fn1 mRNA levels (MC3T3-E1 cells [3]; 21 days) | Itgb3 mRNA levels (MC3T3-E1 cells [3]; 21 days) | ALP mRNA levels (MC3T3-E1 cells [3]; 21 days, vs control) | Oc mRNA levels (MC3T3-E1 cells [3]; 21 days, vs control) | other results
1 | CC(C)C[C@H](NC(=O)[C@@H]1CCCN1)C(=O)N[C@H](C(=O)N1CCC[C@H]1C(=O)N[C@@H](CO)C(=O)N[C@@H](CCC(N)=O)C(=O)N1CCC[C@H]1C(=O)N[C@@H](CC(C)C)C(=O)N[C@H](C(=O)N1CCC[C@H]1C(=O)N[C@@H](CO)C(=O)N[C@@H](CCC(N)=O)C(=O)N1CCC[C@H]1C(=O)N[C@@H](CC(C)C)C(=O)N[C@H](C(=O)N1CCC[C@H]1C(=O)N[C@@H](CO)C(=O)N[C@@H](CCC(N)=O)C(=O)N1CCC[C@H]1C(=O)N[C@@H](CCC(N)=O)C(=O)N1CCC[C@H]1C(=O)N1CCC[C@H]1C(=O)N[C@@H](CC(C)C)C(=O)N1CCC[C@H]1C(=O)N1CCC[C@H]1C(=O)O)C(C)C)C(C)C)C(C)C [P2] (H-PLVPSQPLVPSQPLVPSQPQPPLPP-OH) | decreased significantly | decreased significantly | significantly decreased | decreased significantly | no differences were observed | no differences were observed | significantly decreased | – | total peptide theoretically contained in the alginate hydrogel not released after 21 days ([1]; FITC-labeled P2, 50 μg/ml in 2% alginate hydrogel, 37° C.): 5.6%; burst release of the peptide during the first 24 h of incubation [1, 6]: 54.67%; peptide slowly released up to 11 days [1, 6]: 25.8%; loaded peptide released during the washing step ([1]; washing of alginate hydrogels with culture media to remove excess CaCl2): 12.7%; cell viability compared to EMD (MC3T3-E1 cells [2]): significantly increased; Bmp2 relative mRNA levels (MC3T3-E1 cells [3]; 21 days, vs EMD): decreased; amount of peptide released after 5 days [4]: 9.4 % of the cumulative amount rel; burst release of the peptide during the first 2 days of incubation [4]: 42.8 % of the cumulative amount of P2 released after 21 days
2 | CCC(C)(C)C(=O)O[C@H]1C[C@@H](C)C=C2C=C[C@H](C)[C@H](CC[C@@H]3C[C@@H](O)CC(=O)O3)[C@H]21 [SIM, simvastatin] | – | – | – | – | – | – | – | – | LDH activity compared to alginate-coated scaffolds without SIM ([5]; 10 nM SIM): Neither of the SIM concentrations caused a significant increase; LDH activity compared to alginate-coated scaffolds without SIM ([5]; 10 μM SIM): Neither of the SIM concentrations caused a significant increase; LDH activity, scaffolds with 10 μM SIM compared to scaffolds with 10 nM SIM ([5]; throughout the 14-day period): higher LDH activity
3 | PHQPMQPQPPVHPMQPLPPQPPLPP (Synthetic biomineralizing peptide) [P6, synthetic proline-rich peptide] | decreased significantly | decreased significantly | significantly decreased | decreased significantly | no differences were observed | no differences were observed | significantly decreased | increased | Bmp2 relative mRNA levels (MC3T3-E1 cells [3]; 14 days, sentence ends 'compared to EMD'): increased significantly; ALP mRNA levels (MC3T3-E1 cells [3]; 14 days, vs control): significantly decreased; Itgb1 mRNA levels (MC3T3-E1 cells [3]; 21 days, vs EMD): reduced significantly
4 | PLVPSSPLVPCCPLVPCCPSPPLPP (Synthetic biomineralizing peptide) [P5, synthetic proline-rich peptide] | – | – | – | – | – | – | – | increased | toxic effects compared to EMD and to untreated alginate gel (MC3T3-E1 cells [2]): significantly lower toxic effects; Itga8 mRNA expression (MC3T3-E1 cells [3]; 21 days, vs control alginate hydrogel): increased
